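1) Cells in 96-well plates. 2) Compound, 48 h, 5 concentrations. 3) Linear interpolation between surrounding doses. 4) Unreached endpoint = highest concentration. GI50 marks 50% less growth.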 Active and inactive are the calls of the source. Rule as the data show it: active = GI50 up to about 1.1 µM and inactive = higher. Square brackets hold non-standard residues; d marks the D form. Peptide text beside a SMILES is read from it. pGlu = O=C1CC[CH](C(=O)O)N1
Tests used:
Assay in all cases: DTP human tumour cell line panel, 48 h
786-0 = tested on: 786-0
ACHN = tested on: ACHN
DU-145 = tested on: DU-145
EKVX = tested on: EKVX
HOP-62 = tested on: HOP-62
IGROV-1 = tested on: IGROV-1
M14 = tested on: M14
MDA-MB-435 = tested on: MDA-MB-435
MOLT-4 = tested on: MOLT-4
NCI-H460 = tested on: NCI-H460
OVCAR-5 = tested on: OVCAR-5
PC-3 = tested on: PC-3
RPMI-8226 = tested on: RPMI-8226
SF-268 = tested on: SF-268
SK-MEL-2 = tested on: SK-MEL-2
U-251 = tested on: U-251
UACC-257 = tested on: UACC-257
UO-31 = tested on: UO-31
CCRF-CEM = tested on: CCRF-CEM
A498 = tested on: A498

SMILES	GI50 (786-0)	GI50 (ACHN)	GI50 (DU-145)	GI50 (EKVX)	GI50 (HOP-62)	GI50 (IGROV-1)	GI50 (M14)	GI50 (MDA-MB-435)	GI50 (MOLT-4)	GI50 (NCI-H460)	GI50 (OVCAR-5)	GI50 (PC-3)	GI50 (RPMI-8226)	GI50 (SF-268)	GI50 (SK-MEL-2)	GI50 (U-251)	GI50 (UACC-257)	GI50 (UO-31)	GI50 (CCRF-CEM)	GI50 (A498)
COC(=O)c1ccc(/C=C(\c2ccc([N+](=O)[O-])o2)S(=O)(=O)c2ccc(NC(C)=O)cc2)o1	3.43 µM (inactive)	3.09 µM (inactive)	10.1 µM (inactive)	11.9 µM (inactive)	14.4 µM (inactive)	12.9 µM (inactive)	4.14 µM (inactive)	3.82 µM (inactive)	2.83 µM (inactive)	18.5 µM (inactive)	3.8 µM (inactive)	14.8 µM (inactive)	1.22 µM (inactive)	13.6 µM (inactive)	15.9 µM (inactive)	14.1 µM (inactive)	1.98 µM (inactive)	4.49 µM (inactive)	–	–
O=c1cccccc1O [TROPOLONE]	55.3 µM (inactive)	> 100 µM (inactive)	> 100 µM (inactive)	> 100 µM (inactive)	–	> 100 µM (inactive)	> 100 µM (inactive)	> 100 µM (inactive)	26.9 µM (inactive)	26.5 µM (inactive)	> 100 µM (inactive)	83.4 µM (inactive)	86.9 µM (inactive)	35.7 µM (inactive)	> 100 µM (inactive)	–	> 100 µM (inactive)	80.2 µM (inactive)	17.4 µM (inactive)	–
COc1ccc(-c2c3c(n(C4OC(COC(C)=O)C(OC(C)=O)C(OC(C)=O)C4OC(C)=O)c(=S)c2C#N)CCCC3)cc1 (configuration not stated)	> 100 µM (inactive)	55.6 µM (inactive)	44.9 µM (inactive)	53 µM (inactive)	89.3 µM (inactive)	28.8 µM (inactive)	> 100 µM (inactive)	> 100 µM (inactive)	27.6 µM (inactive)	39.8 µM (inactive)	> 100 µM (inactive)	19.5 µM (inactive)	–	34.2 µM (inactive)	16.2 µM (inactive)	45 µM (inactive)	> 100 µM (inactive)	64.7 µM (inactive)	25.5 µM (inactive)	15.2 µM (inactive)
O=C(O)CSc1nnc(COc2ccc(Cl)cc2)n1-c1ccccc1	> 100 µM (inactive)	> 100 µM (inactive)	> 100 µM (inactive)	> 100 µM (inactive)	> 100 µM (inactive)	> 100 µM (inactive)	> 100 µM (inactive)	> 100 µM (inactive)	> 100 µM (inactive)	> 100 µM (inactive)	> 100 µM (inactive)	> 100 µM (inactive)	–	> 100 µM (inactive)	> 100 µM (inactive)	> 100 µM (inactive)	> 100 µM (inactive)	> 100 µM (inactive)	> 100 µM (inactive)	> 100 µM (inactive)
O=C(CCC=C(S(=O)(=O)c1ccccc1)S(=O)(=O)c1ccccc1)c1ccccc1	3.21 µM (inactive)	5.93 µM (inactive)	5.64 µM (inactive)	12.7 µM (inactive)	16.8 µM (inactive)	12.3 µM (inactive)	7.1 µM (inactive)	5.25 µM (inactive)	3.98 µM (inactive)	12.9 µM (inactive)	10.7 µM (inactive)	3.64 µM (inactive)	–	4.59 µM (inactive)	2.38 µM (inactive)	4.03 µM (inactive)	8.91 µM (inactive)	6.15 µM (inactive)	–	17.3 µM (inactive)
Cc1[nH]n(C(=N)N)c(=O)c1CCO	1.67 µM (inactive)	> 100 µM (inactive)	> 100 µM (inactive)	–	> 100 µM (inactive)	> 100 µM (inactive)	> 100 µM (inactive)	> 100 µM (inactive)	–	> 100 µM (inactive)	> 100 µM (inactive)	> 100 µM (inactive)	–	> 100 µM (inactive)	> 100 µM (inactive)	> 100 µM (inactive)	> 100 µM (inactive)	> 100 µM (inactive)	> 100 µM (inactive)	> 100 µM (inactive)
CC(NC(=O)C(Cc1c[nH]cn1)NC(=O)C1CCC(=O)N1)C(N)=O (stereo not drawn) ([pGlu]-His-Ala-NH2; configuration not given here)	> 100 µM (inactive)	> 100 µM (inactive)	> 100 µM (inactive)	> 100 µM (inactive)	> 100 µM (inactive)	> 100 µM (inactive)	> 100 µM (inactive)	> 100 µM (inactive)	> 100 µM (inactive)	> 100 µM (inactive)	> 100 µM (inactive)	> 100 µM (inactive)	> 100 µM (inactive)	> 100 µM (inactive)	–	> 100 µM (inactive)	–	> 100 µM (inactive)	> 100 µM (inactive)	–
COc1cc2cc(c1Cl)N(C)C(=O)C[C@H](OC(=O)[C@H](C)N(C)C(C)=O)[C@]1(C)O[C@H]1[C@H](C)[C@@H]1C[C@@](O)(NC(=O)O1)[C@H](OC)/C=C/C=C(/C)C2	0.025 µM (active)	0.0526 µM (active)	0.00135 µM (active)	0.355 µM (active)	0.0199 µM (active)	0.0239 µM (active)	0.0509 µM (active)	–	0.0229 µM (active)	0.0157 µM (active)	6.98 µM (inactive)	0.000505 µM (active)	0.0133 µM (active)	0.0176 µM (active)	0.0491 µM (active)	0.015 µM (active)	0.0373 µM (active)	0.0944 µM (active)	0.0159 µM (active)	0.0161 µM (active)
CC(=O)/N=C1\NC(=O)/C(=C/c2ccc(Cl)cc2Cl)N1C	56.4 µM (inactive)	> 100 µM (inactive)	60.4 µM (inactive)	1.02 µM (active)	41.8 µM (inactive)	32.6 µM (inactive)	95.3 µM (inactive)	97.5 µM (inactive)	7.76 µM (inactive)	35.2 µM (inactive)	> 100 µM (inactive)	> 100 µM (inactive)	–	56.6 µM (inactive)	> 100 µM (inactive)	19.5 µM (inactive)	> 100 µM (inactive)	> 100 µM (inactive)	3.44 µM (inactive)	–
Cc1ccc([N+](=O)[O-])cc1S(=O)(=O)Nc1ccc(C2=NN(c3ccc([N+](=O)[O-])cc3[N+](=O)[O-])C(c3cccs3)C2)cc1 (configuration not stated)	17.1 µM (inactive)	22.4 µM (inactive)	25.8 µM (inactive)	15.8 µM (inactive)	19.2 µM (inactive)	16.2 µM (inactive)	15 µM (inactive)	21 µM (inactive)	13.9 µM (inactive)	–	43.9 µM (inactive)	25.9 µM (inactive)	10.9 µM (inactive)	16.4 µM (inactive)	12.1 µM (inactive)	19.5 µM (inactive)	16 µM (inactive)	23.8 µM (inactive)	24.5 µM (inactive)	–
O=C(O)CCNc1ncc2c(n1)-c1ccccc1OC2	> 100 µM (inactive)	> 100 µM (inactive)	> 100 µM (inactive)	61.7 µM (inactive)	> 100 µM (inactive)	36.2 µM (inactive)	> 100 µM (inactive)	> 100 µM (inactive)	> 100 µM (inactive)	> 100 µM (inactive)	> 100 µM (inactive)	> 100 µM (inactive)	> 100 µM (inactive)	> 100 µM (inactive)	> 100 µM (inactive)	> 100 µM (inactive)	> 100 µM (inactive)	> 100 µM (inactive)	> 100 µM (inactive)	–
O=C1CSC(c2c[nH]c3ccccc23)N1c1cccc([N+](=O)[O-])c1 (configuration not stated)	> 100 µM (inactive)	–	51.9 µM (inactive)	> 100 µM (inactive)	> 100 µM (inactive)	> 100 µM (inactive)	> 100 µM (inactive)	38.3 µM (inactive)	> 100 µM (inactive)	28.8 µM (inactive)	> 100 µM (inactive)	36.1 µM (inactive)	> 100 µM (inactive)	> 100 µM (inactive)	–	> 100 µM (inactive)	> 100 µM (inactive)	42.7 µM (inactive)	> 100 µM (inactive)	–
Cc1cc(=O)oc2c(CNC(CC(C)C)C(=O)O)c(O)ccc12 (configuration not stated)	> 100 µM (inactive)	> 100 µM (inactive)	> 100 µM (inactive)	> 100 µM (inactive)	> 100 µM (inactive)	> 100 µM (inactive)	> 100 µM (inactive)	> 100 µM (inactive)	> 100 µM (inactive)	> 100 µM (inactive)	> 100 µM (inactive)	> 100 µM (inactive)	> 100 µM (inactive)	> 100 µM (inactive)	> 100 µM (inactive)	> 100 µM (inactive)	> 100 µM (inactive)	> 100 µM (inactive)	–	–
CCN(CC)c1ccc2cc(C(N)=O)/c(=N/c3ccc(F)cc3)oc2c1	14.8 µM (inactive)	40.8 µM (inactive)	–	81.5 µM (inactive)	28 µM (inactive)	26.7 µM (inactive)	> 100 µM (inactive)	> 100 µM (inactive)	> 100 µM (inactive)	6.76 µM (inactive)	> 100 µM (inactive)	77.1 µM (inactive)	> 100 µM (inactive)	39.5 µM (inactive)	35.7 µM (inactive)	38.5 µM (inactive)	> 100 µM (inactive)	26.9 µM (inactive)	> 100 µM (inactive)	39.4 µM (inactive)
CCCCCCCC/C=C\CCCCCCC/C=C1/C[C@](/C=C/C(=O)OC)(CO)OC1=O	0.908 µM (active)	3.11 µM (inactive)	9.06 µM (inactive)	9.73 µM (inactive)	3.44 µM (inactive)	11.5 µM (inactive)	2.05 µM (inactive)	0.904 µM (active)	1.3 µM (inactive)	2.15 µM (inactive)	7.46 µM (inactive)	2.58 µM (inactive)	–	6.9 µM (inactive)	13.5 µM (inactive)	6.03 µM (inactive)	15.6 µM (inactive)	1.77 µM (inactive)	1.01 µM (active)	8.67 µM (inactive)

Source: ChEMBL document CHEMBL1201862, “PubChem BioAssay data set” (2004)
